Experimental findings from patent US10800757B2, “Inhibitors of TRPC6” (Boehringer Ingelheim International GmbH, priority 2017, dated 2020) are described below.

What is called IC50 is the point on the concentration scale where inhibition reaches its midpoint.

In the test the target is TRPC6 (Homo sapiens (Human), UniProt Q9Y210). Nature of the test: High throughput screening assay: fluorescent calcium (Fluo4/AM) assay of TRPC6 channel activation by GSK1702934A in HEK293/TREx cells. Type of test: cell-based. The settings on record: HEK293/TREx cells stably transfected with TRPC6; agonist GSK1702934A; 7 concentrations 20 μM to 0.027 μM, triplicate. An outline of the steps: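 HEK293/TREx cells stably carrying a TRPC6 construct were induced with 1 μg/ml tetracycline, plated at ~35,000 cells/well in 384-well CellBind plates, and loaded with 0.5 μM Fluo4/AM in Ringer's with 1% Pluronic F-127. Compounds were added 2 minutes before 125 nM GSK1702934A in high-Ca2+ Ringer. Fluorescence was read on a Hamamatsu FDSS 6000, normalized to controls, and fitted for IC50 from triplicates.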
TRPC6, sequence (Q9Y210 whole entry, species assumed): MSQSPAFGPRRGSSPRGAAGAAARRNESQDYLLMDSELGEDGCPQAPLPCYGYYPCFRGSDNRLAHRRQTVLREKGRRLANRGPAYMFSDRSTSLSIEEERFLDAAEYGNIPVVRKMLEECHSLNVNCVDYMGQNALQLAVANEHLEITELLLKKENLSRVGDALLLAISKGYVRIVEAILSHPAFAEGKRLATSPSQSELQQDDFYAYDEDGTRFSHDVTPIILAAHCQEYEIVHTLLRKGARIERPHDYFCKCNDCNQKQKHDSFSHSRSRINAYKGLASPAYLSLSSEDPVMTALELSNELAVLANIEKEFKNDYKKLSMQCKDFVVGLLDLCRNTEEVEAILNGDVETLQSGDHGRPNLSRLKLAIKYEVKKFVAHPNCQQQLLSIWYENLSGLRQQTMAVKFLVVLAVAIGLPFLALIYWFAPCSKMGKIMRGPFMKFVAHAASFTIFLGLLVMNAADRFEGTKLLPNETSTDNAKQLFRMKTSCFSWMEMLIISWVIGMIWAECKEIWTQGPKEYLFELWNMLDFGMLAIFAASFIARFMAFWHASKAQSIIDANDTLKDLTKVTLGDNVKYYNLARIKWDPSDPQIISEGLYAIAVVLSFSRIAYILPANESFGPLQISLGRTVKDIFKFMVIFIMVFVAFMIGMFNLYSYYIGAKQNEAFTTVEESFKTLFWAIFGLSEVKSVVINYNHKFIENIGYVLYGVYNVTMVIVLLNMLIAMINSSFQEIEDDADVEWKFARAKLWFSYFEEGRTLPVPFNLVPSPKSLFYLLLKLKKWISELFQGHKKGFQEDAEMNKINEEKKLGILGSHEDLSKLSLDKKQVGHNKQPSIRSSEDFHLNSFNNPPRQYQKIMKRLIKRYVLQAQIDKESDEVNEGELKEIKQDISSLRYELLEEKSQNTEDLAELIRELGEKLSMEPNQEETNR
For `COc1cc(C(=O)N2CCC(c3cnc(N)cc3OC)CC2)ncc1OCCC1CC1` [Compound 48, (6-Amino-4-methoxy-3′,4′,5′,6′-tetrahydro-2′H-[3,4′]bipyridinyl-1′-yl)-[5-(2-cyclopropyl-ethoxy)-4-methoxy-pyridin-2-yl]-methanone], the IC50 amounted to 0.25 µM.
Turning to `COc1cc(C(=O)N2CCC(c3cnc(N)cc3OC)CC2)ncc1OCC(C)(C)C` [Compound 59, (6-Amino-4-methoxy-3′,4′,5′,6′-tetrahydro-2′H-[3,4′]bipyridinyl-1′-yl)-[5-(2,2-dimethyl-propoxy)-4-methoxy-pyridin-2-yl]-methanone], the IC50 came out at 0.34 µM.
With `COc1cc(C(=O)N2CCC(c3cc(OC)c(N)nn3)CC2)ncc1Oc1ccccc1` [Compound 21, [4-(6-Amino-5-methoxy-pyridazin-3-yl)-piperidin-1-yl]-(4-methoxy-5-phenoxy-pyridin-2-yl)-methanone], the IC50 was 0.043 µM.
With `COc1cc(C(=O)N2CCC(c3ccc(N)nn3)CC2)ncc1Oc1ccc(OC(C)C)cc1` [Compound 6, [4-(6-Amino-pyridazin-3-yl)-piperidin-1-yl]-[5-(4-isopropoxy-phenoxy)-4-methoxy-pyridin-2-yl]-methanone] the figure was 0.027 µM; with `COc1cc(C(=O)N2CCC(c3cnc(N)cc3OC)CC2)ncc1OCC1CCC1(F)F` (centres unmarked) [Compound 95, 5-(1-{5-[(2,2-Difluorocyclobutyl)-methoxy]-4-methoxy-pyridine-2-carbonyl}-piperidin-4-yl)-4-methoxypyridin-2-amine], 0.445 µM; with `COc1cc(C(=O)N2CCC(c3ccc(N)nn3)CC2)ncc1Oc1ccc(OC(F)(F)F)cc1` [Compound 80, [4-(6-Amino-pyridazin-3-yl)-piperidin-1-yl]-[4-methoxy-5-(4-trifluoromethoxy-phenoxy)-pyridin-2-yl]-methanone], less than 0.027 µM.
On to `COC[C@H]1CN(c2cnc(N)cc2OC)CCN1C(=O)c1cc(OC)c(Oc2ccccc2)cn1` [Compound 27, [(R)-4-(6-Amino-4-methoxy-pyridin-3-yl)-2-methoxymethyl-piperazin-1-yl]-(4-methoxy-5-phenoxy-pyridin-2-yl)-methanone], for which the IC50 worked out at 0.075 µM.
With `COc1cc(C(=O)N2CCN(c3cnc(N)cc3OC)CC23CC3)ncc1Oc1ccccc1` [Compound 8, [7-(6-Amino-4-methoxy-pyridin-3-yl)-4,7-diaza-spiro[2.5]oct-4-yl]-(4-methoxy-5-phenoxy-pyridin-2-yl)-methanone] the figure was 0.027 µM; with `COc1cc(C(=O)N2CCC(c3cnc(N)cc3OC)CC2)ncc1OCC(C)C(F)(F)F` (single isomer, unassigned) [Compound 94a, 4-Methoxy-5-(1-{4-methoxy-5-[3,3,3-trifluoro-2-methylpropoxy]pyridine-2-carbonyl}piperidin-4-yl)-pyridin-2-amine], 0.343 µM; with `COc1cc(C(=O)N2CCC(c3cnc(N)cc3OC)CC2)ncc1OCC1CC1` [Compound 37, 5-{1-[5-(Cyclopropylmethoxy)-4-methoxypyridine-2-carbonyl]piperidin-4-yl}-4-methoxypyridin-2-amine], 0.16 µM.
With `COc1cc(C(=O)N2CCN(c3cnc(N)cc3C)C[C@@H]2CO)ncc1Oc1ccc(F)cc1` [Compound 7, [(R)-4-(6-Amino-4-methyl-pyridin-3-yl)-2-hydroxymethyl-piperazin-1-yl]-[5-(4-fluoro-phenoxy)-4-methoxy-pyridin-2-yl]-methanone] the figure was 0.027 µM; with `COc1cc(C(=O)N2CCC(c3cnc(N)cc3OC)CC2)ncc1OCC1(CF)CC1` [Compound 64, (6-Amino-4-methoxy-3′,4′,5′,6′-tetrahydro-2′H-[3,4′]bipyridinyl-1′-yl)-[5-(1-fluoromethyl-cyclopropylmethoxy)-4-methoxy-pyridin-2-yl]-methanone], 0.82 µM.
`COc1cc(C(=O)N2CCC(c3ccc(N)nn3)CC2)ncc1OC1CCCCC1` [Compound 62, [4-(6-Amino-pyridazin-3-yl)-piperidin-1-yl]-(5-cyclohexyloxy-4-methoxy-pyridin-2-yl)-methanone]: the IC50 turned out to be 0.55 µM.
The same measure for `COc1ccc(Oc2cnc(C(=O)N3CCC(c4nnc(N)cc4OC)CC3)cc2OC)cc1` [Compound 66, [4-(6-Amino-4-methoxy-pyridazin-3-yl)-piperidin-1-yl]-[4-methoxy-5-(4-methoxy-phenoxy)-pyridin-2-yl]-methanone]: 0.84 µM; for `COc1cc(C(=O)N2CCC(c3nnc(N)cc3C)CC2)ncc1OCC1CC1` [Compound 78, [4-(6-Amino-4-methyl-pyridazin-3-yl)-piperidin-1-yl]-(5-cyclopropylmethoxy-4-methoxy-pyridin-2-yl)-methanone]: 2.8 µM.
As for `COc1cc(C(=O)N2CCC(c3cnc(N)cc3OC)CC2)ncc1OC(C)C` [Compound 72, (6-Amino-4-methoxy-3′,4′,5′,6′-tetrahydro-2′H-[3,4′]bipyridinyl-1′-yl)-(5-isopropoxy-4-methoxy-pyridin-2-yl)-methanone], the IC50 worked out at 0.91 µM.
Turning to `COc1cc(C(=O)N2CCC(c3ccc(N)nc3)CC2)ncc1Oc1ccc(F)cc1` [Compound 14, (6-Amino-3′,4′,5′,6′-tetrahydro-2′H-[3,4′]bipyridinyl-1′-yl)-[5-(4-fluoro-phenoxy)-4-methoxy-pyridin-2-yl]-methanone], the IC50 was 0.027 µM.
Take `COc1cc(C(=O)N2CCC(c3cnc(N)cc3OC)CC2)ncc1OCc1ccc(F)cc1` [Compound 32, (6-Amino-4-methoxy-3′,4′,5′,6′-tetrahydro-2′H-[3,4′]bipyridinyl-1′-yl)-[5-(4-fluoro-benzyloxy)-4-methoxy-pyridin-2-yl]-methanone]: the IC50 came out at 0.13 µM.
With `COc1cc(C(=O)N2CCC(c3ccc(N)nn3)CC2)ncc1OCC1(C)CC1` [Compound 75, [4-(6-Amino-pyridazin-3-yl)-piperidin-1-yl]-[4-methoxy-5-(1-methyl-cyclopropylmethoxy)-pyridin-2-yl]-methanone] the figure was 1.5 µM; with `COc1cc(C(=O)N2CCC(c3cnc(N)cc3OC)CC2)ncc1OCc1ccccc1F` [Compound 19, (6-Amino-4-methoxy-3′,4′,5′,6′-tetrahydro-2′H-[3,4′]bipyridinyl-1′-yl)-[5-(2-fluoro-benzyloxy)-4-methoxy-pyridin-2-yl]-methanone], 0.032 µM.
